Read-outs that look alike come from different tables or passages of the source.
How the values were obtained:
OX2R = target: T1, OX2R (Homo sapiens, UniProt O43614); conditions: cited from earlier work
T1 sequence (O43614 1-444): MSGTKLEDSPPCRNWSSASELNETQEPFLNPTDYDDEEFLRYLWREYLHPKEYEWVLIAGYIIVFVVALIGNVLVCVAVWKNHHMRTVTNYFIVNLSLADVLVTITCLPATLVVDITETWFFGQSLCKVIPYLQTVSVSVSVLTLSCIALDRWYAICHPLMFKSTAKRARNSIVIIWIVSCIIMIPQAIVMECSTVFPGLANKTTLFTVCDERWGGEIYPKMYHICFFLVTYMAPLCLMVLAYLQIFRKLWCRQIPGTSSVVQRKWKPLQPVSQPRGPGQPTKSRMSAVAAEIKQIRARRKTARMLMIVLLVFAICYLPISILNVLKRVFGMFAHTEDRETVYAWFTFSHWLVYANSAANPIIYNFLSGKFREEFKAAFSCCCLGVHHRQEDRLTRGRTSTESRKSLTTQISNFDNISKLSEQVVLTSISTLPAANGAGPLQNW

human Orexin 1 receptor = target: T2, human Orexin 1 receptor (Homo sapiens, UniProt O43613); assay: Assay A: OX1R IP1 (in vitro OX1R potency); type: cell-based; conditions: for Kb: Table 3, read-out: Assay A OX1R Kb (Orexin A concentration); for OX1R selectivity compared to Example 14 in WO2016/034882 / OX1R selectivity over OX2R (selectivity ratio OX2R Kb/OX1R Kb) compared to Example 91 in WO2016/034882 / OX1R potency compared to Example 91 in WO2016/034882: in words; for OX1R selectivity compared to Example 14 in WO2016/034882: versus Example 14 in WO2016/034882; for OX1R selectivity over OX2R (selectivity ratio OX2R Kb/OX1R Kb) compared to Example 91 in WO2016/034882 / OX1R potency compared to Example 91 in WO2016/034882: versus Example 91 in WO2016/034882
T2 construct: stably expressing the full-length human Orexin 1 receptor; expressed in transfected cells; host or cells: CHO-K1 (CHO-K1/hOx1), co-expressing the aequorin photoprotein
T2 sequence (O43613 1-425): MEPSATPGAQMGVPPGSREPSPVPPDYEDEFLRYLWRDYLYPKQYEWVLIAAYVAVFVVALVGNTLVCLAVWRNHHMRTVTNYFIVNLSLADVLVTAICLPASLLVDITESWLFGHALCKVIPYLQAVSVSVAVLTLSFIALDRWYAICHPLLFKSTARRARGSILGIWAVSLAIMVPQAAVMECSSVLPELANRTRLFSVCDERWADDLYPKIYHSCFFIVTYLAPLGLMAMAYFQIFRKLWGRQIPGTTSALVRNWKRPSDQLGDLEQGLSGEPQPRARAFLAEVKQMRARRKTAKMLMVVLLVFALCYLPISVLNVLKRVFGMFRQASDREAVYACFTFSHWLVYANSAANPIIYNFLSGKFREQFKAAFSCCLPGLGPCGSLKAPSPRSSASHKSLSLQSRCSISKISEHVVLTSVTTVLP
From the text: Activation of the orexin receptors expressed in cell lines results in an increase in intracellular IP3 concentration. IP1, a downstream metabolite of IP3, accumulates in cells following receptor activation and is stable in the presence of LiCl. Using Homogeneous Time-Resolved Fluorescence technology with Lumi4-Tb cryptate (commercially available from Cisbio Bioassay.) and a suitable fluorescence plate reader. […] This technique is used to characterize pharmacological modification of the orexin receptors.
A. In Vitro Testing of OX1R Potency: OX1R IP1
IP1 measurements are performed in CHO-K1 cells stably expressing the full-length human Orexin 1 receptor and the aequorin photoprotein. Cells are cultivated in Ham's nutrient mixture F12 medium with 10% fetal calf serum, in a 37° C., 95% humidity and 5% CO2 incubator. The CHO-K1/hOx1 cell mass is expanded to larger cell numbers. The cells are obtained as frozen cells in cryo-vials and stored until use at −150° C. […] In preparation for the assay, 24 hours before the assay, the cells are thawed at 37° C. and immediately diluted with cell culture medium. After centrifugation, the cell pellet is re-suspended in medium and then distributed into the assay plates with a density of 10000 cells/25 μL per well. The plates are incubated for one hour at room temperature to reduce edge effects before they are incubated for 24 hours at 37° C./5% CO2. Compounds are prepared by an 8-point serial dilution in DMSO and a final dilution step into assay buffer (HBSS with 20 mM HEPES, 0.1% BSA and 50 mM LiCl, pH 7.4) to ensure a final DMSO concentration of 1% in the assay.
(§1) On the day of the assay, cells in the plate are washed twice with 60 μL assay buffer (20 μL buffer remained in the wells after washing), followed by adding 5 μL per well of compounds diluted in assay buffer. After 15 minutes of incubation at room temperature 5 μL per well of Orexin A peptide (final concentration: 0.5 nM and/or 50 nM) dissolved in assay buffer is added to the assay plate. The assay plate is incubated for 60 minutes at 37° C. Then 5 μl per well of Anti-IP1-Cryptate Tb solution and 5 μl per well of IP1-d2 dilution are added and the plate is incubated for a further 60 minutes light protected at room temperature.
(§2) 8-point four parametric non-linear curve fitting and determination of IC50 values and Hill slopes is performed using a regular analysis software e.g. AssayExplorer (Accelrys). In order to establish an agonist concentration independent parameter, Kb values are calculated using the following equation: IC50/((2+(A/EC50)^n)^1/n−1) (with A=concentration agonist, EC50=EC50 agonist, n=Hill slope agonist).

human orexin 2 receptor = target: T3, human orexin 2 receptor (Homo sapiens, UniProt O43614); assay: Assay B: OX2R IP1 (in vitro OX2R potency); type: cell-based; conditions: Table 3; 0.5 nM Orexin A
T3 construct: stably expressing the full-length human orexin 2 receptor; expressed in transfected cells; host or cells: CHO-K1 (CHO-K1/hOx2), co-expressing the aequorin photoprotein
T3 sequence (O43614 1-444): T1 sequence (O43614 1-444)
From the text: Activation of the orexin receptors expressed in cell lines results in an increase in intracellular IP3 concentration. IP1, a downstream metabolite of IP3, accumulates in cells following receptor activation and is stable in the presence of LiCl. Using Homogeneous Time-Resolved Fluorescence technology with Lumi4-Tb cryptate (commercially available from Cisbio Bioassay.) and a suitable fluorescence plate reader. […] Chem. Genomics 2009, 3, 22-32. This technique is used to characterize pharmacological modification of the orexin receptors.
B. In Vitro Testing of OX2R Potency: OX2R IP1
IP1 measurements are performed in CHO-K1 cells stably expressing the full-length human orexin 2 receptor and the aequorin photoprotein. Cells are cultivated in Ham's nutrient mixture F12 medium with 10% fetal calf serum, in a 37° C., 95% humidity and 5% CO2 incubator. The CHO-K1/hOx2 cell mass is expanded to larger cell numbers. The cells are obtained as frozen cells in cryo-vials and stored until use at −150° C. The viability of the cells after thawing is >90%. In preparation for the assay, 24 hours before the assay, the cells are thawed at 37° C. and immediately diluted with cell culture medium. After centrifugation, the cell pellet is resuspended in medium and then distributed into the assay plates with a density of 5000 cells/25 μL per well. The plates are incubated for one hour at room temperature to reduce edge effects before they are incubated for 24 hours at 37° C./5% CO2. Compounds are prepared by a 8-point serial dilution in DMSO and a final dilution step into assay buffer (HBSS with 20 mM HEPES, 0.1% BSA and 50 mM LiCl, pH 7.4) to ensure a final DMSO concentration of 1% in the assay.
as §1, with “concentration: 0.5 nM) dissolved” for “concentration: 0.5 nM and/or 50 nM) dissolved”, “are added to all well of the plate and the” for “are added and the”, “room temperature. The emission at 615 nm and 665 nm (Excitation wavelength: 320 nm) are measured using an EnVision reader (PerkinElmer). The ratio between the emission at 665 nm and 615 is calculated by the reader.” for “room temperature.”
as §2, with “of […]” for “of IC50”, “slope agonist) (see P. Leff, I. G. Dougall, Trends Pharmacol. Sci. 1993, 14(4), 110-112).” for “slope agonist).”

Compound: CC[C@@H](CNc1ncc(C(F)(F)F)cn1)N(C)C(=O)c1c(F)cccc1-n1nccn1 [Ex 91 in WO2016/ 034882]
- OX2R pIC50 (OX2R; Table 3 of WO2016/034882): < 5.1
- IC50 (OX2R; corresponds to pIC50 of Table 3 of WO2016/034882): > 7950 nM

Compound: CCN(C(=O)c1ccc(F)cc1-c1ncccn1)[C@@H](C)COc1ncc(C(F)(F)F)cn1 [Example 25]
- Kb (human Orexin 1 receptor; 0.5 nM Orexin A): 0.81 nM
- Kb (human Orexin 1 receptor; 50 nM Orexin A): 1.4 nM
- Kb (human orexin 2 receptor): 272 nM

Compound: CCN(C(=O)c1ccccc1-c1ncccn1)[C@@H](C)COc1ncc(C(F)(F)F)cn1 [Example 28]
- Kb (human Orexin 1 receptor; 0.5 nM Orexin A): 0.62 nM
- Kb (human Orexin 1 receptor; 50 nM Orexin A): 0.74 nM
- OX1R selectivity compared to Example 14 in WO2016/034882 (human Orexin 1 receptor): increase in OX1R selectivity
- Kb (human orexin 2 receptor): 176 nM

Compound: CCN(C(=O)c1cccc(F)c1-n1nccn1)[C@@H](C)COc1ncc(Br)cn1 [Example 29]
- OX2R Kb/OX1R Kb (human Orexin 1 receptor): 178
- Kb (human Orexin 1 receptor; 0.5 nM Orexin A): 2 nM
- OX1R selectivity over OX2R (selectivity ratio OX2R Kb/OX1R Kb) compared to Example 91 in WO2016/034882 (human Orexin 1 receptor): increase in OX1R selectivity
- Kb (human orexin 2 receptor): 350 nM

Compound: CCN(C(=O)c1ccc(OC)cc1-n1nccn1)[C@@H](C)COc1ncc(C(F)(F)F)cn1 [Example 30]
- OX2R Kb/OX1R Kb (human Orexin 1 receptor): 322
- Kb (human Orexin 1 receptor; 0.5 nM Orexin A): 1.8 nM
- OX1R potency compared to Example 91 in WO2016/034882 (human Orexin 1 receptor): increase
- OX1R selectivity over OX2R (selectivity ratio OX2R Kb/OX1R Kb) compared to Example 91 in WO2016/034882 (human Orexin 1 receptor): increase
- Kb (human orexin 2 receptor): 579 nM

Compound: CCN(C(=O)c1ccccc1-c1cnc(C)o1)[C@@H](C)COc1ncc(C(F)(F)F)cn1 [Example 31]
- OX2R Kb/OX1R Kb (human Orexin 1 receptor): 124
- Kb (human Orexin 1 receptor; 0.5 nM Orexin A): 6 nM
- OX1R selectivity over OX2R (selectivity ratio OX2R Kb/OX1R Kb) compared to Example 91 in WO2016/034882 (human Orexin 1 receptor): increase in OX1R selectivity
- Kb (human orexin 2 receptor): 746 nM

Compound: CCN(C(=O)c1cccc(F)c1-c1ncccn1)[C@@H](C)COc1ncc(C(F)(F)F)cn1 [Example 32]
- Kb (human Orexin 1 receptor; 0.5 nM Orexin A): 0.61 nM
- Kb (human Orexin 1 receptor; 50 nM Orexin A): 0.46 nM
- OX1R selectivity compared to Example 14 in WO2016/034882 (human Orexin 1 receptor): increase in OX1R selectivity
- Kb (human orexin 2 receptor): 188 nM

Compound: CCN(C(=O)c1c(-n2nccn2)ccc(C)c1F)[C@@H](C)COc1ncc(C(F)(F)F)cn1 [Example 34]
- OX2R Kb/OX1R Kb (human Orexin 1 receptor): 239
- Kb (human Orexin 1 receptor; 0.5 nM Orexin A): 1.8 nM
- OX1R potency compared to Example 91 in WO2016/034882 (human Orexin 1 receptor): increase in OX1R potency
- OX1R selectivity over OX2R (selectivity ratio OX2R Kb/OX1R Kb) compared to Example 91 in WO2016/034882 (human Orexin 1 receptor): increase in OX1R selectivity
- Kb (human orexin 2 receptor): 431 nM

Compound: CCN(C(=O)c1ccc(F)c(F)c1-n1nccn1)[C@@H](C)COc1ncc(C(F)(F)F)cn1 [Example 35]
- OX2R Kb/OX1R Kb (human Orexin 1 receptor): 182
- Kb (human Orexin 1 receptor; 0.5 nM Orexin A): 2.5 nM
- OX1R selectivity over OX2R (selectivity ratio OX2R Kb/OX1R Kb) compared to Example 91 in WO2016/034882 (human Orexin 1 receptor): more selective
- Kb (human orexin 2 receptor): 455 nM

Compound: CCN(C(=O)c1ccccc1-c1ncco1)[C@@H](C)COc1ncc(C(F)(F)F)cn1 [Example 36]
- OX2R Kb/OX1R Kb (human Orexin 1 receptor): 160
- Kb (human Orexin 1 receptor; 0.5 nM Orexin A): 3.2 nM
- OX1R selectivity over OX2R (selectivity ratio OX2R Kb/OX1R Kb) compared to Example 91 in WO2016/034882 (human Orexin 1 receptor): increase in OX1R selectivity
- Kb (human orexin 2 receptor): 511 nM

From patent US10392369B2, “N-[(pyrimidinyloxy)propanyl]benzamides” (Boehringer Ingelheim International GmbH, priority 2016, dated 2019)
